The values that follow come from patent US11845805B2, “Bispecific antibody against CD3 and CD20 in combination therapy for treating diffuse large B-cell lymphoma” (GENMAB A/S, priority 2020, dated 2023).

Like-named read-outs stand apart in the source and are kept apart here.

One series concerns T cells. Kind of series: T cell viability after 16 hours pre-incubation with CHOP components. It counts as cell-based.
The subject of series [1] is CD20-expressing Raji-luc tumor cells. The settings on record: even in the presence of an excess of IgG1-RTX-FEAR (rituximab variant with inert Fc domain); cited from earlier work.
Series [2] deals with primary DLBCL and follicular lymphoma patient biopsies. The settings on record: biopsies taken a certain amount of time after administration of an anti-CD20 antibody; cited from earlier work.
Where [3] appears, read: T cells pretreated 16 hours with the CHOP component.

For the compound `COc1cccc2c1C(=O)c1c(O)c3c(c(O)c1C2=O)C[C@@](O)(C(=O)CO)C[C@@H]3O[C@H]1C[C@H](N)[C@H](O)[C@H](C)O1` [doxorubicin], in the series with T cells (setting [3]), the T cell viability result is listed as “reduction in T cell viability”. Same read-out and setting: for `C[C@]12C=CC(=O)C=C1CC[C@@H]1[C@@H]2C(=O)C[C@@]2(C)[C@H]1CC[C@]2(O)C(=O)CO` [prednisone, 17,21-dihydroxypregna-1,4-diene-3,11,20-trione] the value was “did not impact T cell viability”. For the compound `O=P1(N(CCCl)CCCl)NCCCO1` (stereo not drawn) [cyclophosphamide, 2H-1,3,2-Oxazaphosphorin-2-amine, N,N-bis(2-chloroethyl)tetrahydro-, 2-oxide], in the series on T cells, the T cell viability entry is given as “did not impact T cell viability”. Consider “epcoritamab: IgG1 bispecific CD3×CD20 antibody; heavy/light chain pairs SEQ ID NOs: 24/25 and 26/27; CAS 2134641-34-0”, for which the “tumor growth in the xenograft model” value in series [1] is “effectively reduce tumor growth”. Moreover, the “T-cell-mediated cytotoxicity in patient biopsies” value in series [2] is “induced T-cell-mediated cytotoxicity”.

Regarding `CC[C@]1(O)C[C@H]2CN(CCc3c([nH]c4ccccc34)[C@@](C(=O)OC)(c3cc4c(cc3OC)N(C=O)[C@H]3[C@@](O)(C(=O)OC)[C@H](OC(C)=O)[C@]5(CC)C=CCN6CC[C@]43[C@@H]65)C2)C1` [vincristine], the T cell viability result with T cells (setting [3]) is “did not impact T cell viability”.
